Measured values as given in ChEMBL document CHEMBL5214944, “Preparation of radiolabeled erlotinib analogues and analysis of the effect of linkers” (Bioorg Med Chem Lett, 2022).

Tests used:
[1] = Retention time of the compound by RP-HPLC analysis; type: physicochemical
[2] = Biodistribution in Swiss mouse assessed as accumulation at radioactivity in liver at 3 MBq, iv and measured 1 hr post injection by gamma counter method; type: ADME, organism-based; conditions: in vivo
[3] = Octanol/water partition coefficient, logP of compound by gamma counter analysis; type: physicochemical
A-431 = assay: Cytotoxicity against human A-431 cells assessed as inhibition of cell growth at 100 uM incubated for 24 hrs by MTT assay; type: toxicity, cell-based; conditions: a-431, 24 h
[4] = Cytotoxicity against human A-431 cells assessed as inhibition of cell growth at 100 uM incubated for 72 hrs by MTT assay; type: toxicity, cell-based
[5] = Cytotoxicity against human A-431 cells assessed as inhibition of cell growth at 50 uM incubated for 24 hrs by MTT assay; type: toxicity, cell-based; conditions: read-out: Activity

Retention_time [1] [min]	SMILES	Activity (A-431)	inhibition at 72 h, 100 µM [4] [%]	further results
15.9	COCCOc1cc2ncnc(Nc3cccc(-c4cn(CCOCCOCCOCCN)nn4)c3)c2cc1OCCOC	–	–	–
13.5	COCCOc1cc2ncnc(Nc3cccc(-c4cn(CCCN)nn4)c3)c2cc1OCCOC	–	–	–
17.4	COCCOc1cc2ncnc(Nc3cccc(-c4cn(CCOCCOCCOCCOCCOCCOCCN)nn4)c3)c2cc1OCCOC	–	–	–

The remaining lines, values behind:

SMILES	Retention_time [1] [min]	Activity (A-431)	inhibition at 72 h, 100 µM [4] [%]	further results
COCCOc1cc2ncnc(Nc3cccc(-c4cn(CC[18F])nn4)c3)c2cc1OCCOC	–	–	–	Drug uptake [2]: 17.1 % ID/g; logP [3]: 2.36
COCCOc1cc2ncnc(Nc3cccc(-c4cn(CCOCCOCCOCCNC(=S)Nc5ccc(CC6CN(CC(=O)O)CCN(CC(=O)O)CCN(CC(=O)O)CCN6CC(=O)O)cc5)nn4)c3)c2cc1OCCOC (stereo not drawn)	17.2	Toxic	92.6	–
C#Cc1cccc(Nc2ncnc3cc(OCCOC)c(OCCOC)cc23)c1 [ERLOTINIB]	–	–	92.7	inhibition at 24 h, 50 µM [5]: 29.8%
COCCOc1cc2ncnc(Nc3cccc(-c4cn(CCOCCOCCOCCOCCOCCOCCNC(=S)Nc5ccc(CC6CN(CC(=O)O)CCN(CC(=O)O)CCN(CC(=O)O)CCN6CC(=O)O)cc5)nn4)c3)c2cc1OCCOC (stereo not drawn)	18.5	Toxic	90.9	–
COCCOc1cc2ncnc(Nc3cccc(-c4cn(CCCNC(=S)Nc5ccc(CC6CN(CC(=O)O)CCN(CC(=O)O)CCN(CC(=O)O)CCN6CC(=O)O)cc5)nn4)c3)c2cc1OCCOC (stereo not drawn)	15.9	Non-Toxic	91.3	–
C#Cc1cccc(Nc2ncnc3cc(OCCOC)c(OCCO[11CH3])cc23)c1	–	–	–	Drug uptake [2]: 10.55 % ID/g; logP [3]: 3.2
